Experimental data from the NIST ThermoML archive (doi:10.1016/j.jct.2016.06.016).

Assay: xn = mol fraction of the nth substance listed
Conditions: 100 kPa, Liquid; for viscosity: Concentric cylinders viscometry; for mass density: Vibrating tube method

CCOC(=O)CCC(=O)OCC [diethyl butanedioate] + CCCO
Conditions | mass density [kg/m3] | viscosity [mPa·s]
288.15 K, x1 = 0.1 | 854.4 | 2.13
288.15 K, x1 = 0.2 | 891.88 | 2.009
288.15 K, x1 = 0.2999 | 922.67 | 2.025
288.15 K, x1 = 0.3998 | 948.47 | 2.105
288.15 K, x1 = 0.4999 | 970.46 | 2.214
288.15 K, x1 = 0.6001 | 989.43 | 2.341
288.15 K, x1 = 0.7001 | 1005.92 | 2.496
288.15 K, x1 = 0.8002 | 1020.45 | 2.69
288.15 K, x1 = 0.8997 | 1033.27 | 2.926
288.15 K, x1 = 1 | 1044.83 | 3.195
293.15 K, x1 = 0.1 | 850.08 | 1.889
293.15 K, x1 = 0.2 | 887.33 | 1.788
293.15 K, x1 = 0.2999 | 917.95 | 1.804
293.15 K, x1 = 0.3998 | 943.61 | 1.875
293.15 K, x1 = 0.4999 | 965.5 | 1.971
293.15 K, x1 = 0.6001 | 984.4 | 2.082
293.15 K, x1 = 0.7001 | 1000.83 | 2.215
293.15 K, x1 = 0.8002 | 1015.31 | 2.379
293.15 K, x1 = 0.8997 | 1028.1 | 2.578
293.15 K, x1 = 1 | 1039.63 | 2.807
298.15 K, x1 = 0.1 | 845.75 | 1.69
298.15 K, x1 = 0.2 | 882.77 | 1.608
298.15 K, x1 = 0.2999 | 913.21 | 1.622
298.15 K, x1 = 0.3998 | 938.75 | 1.684
298.15 K, x1 = 0.4999 | 960.54 | 1.767
298.15 K, x1 = 0.6001 | 979.36 | 1.866
298.15 K, x1 = 0.7001 | 995.74 | 1.983
298.15 K, x1 = 0.8002 | 1010.18 | 2.126
298.15 K, x1 = 0.8997 | 1022.93 | 2.297
298.15 K, x1 = 1 | 1034.44 | 2.491
303.15 K, x1 = 0.1 | 841.4 | 1.519
303.15 K, x1 = 0.2 | 878.18 | 1.452
303.15 K, x1 = 0.2999 | 908.46 | 1.465
303.15 K, x1 = 0.3998 | 933.87 | 1.518
303.15 K, x1 = 0.4999 | 955.57 | 1.593
303.15 K, x1 = 0.6001 | 974.32 | 1.682
303.15 K, x1 = 0.7001 | 990.64 | 1.787
303.15 K, x1 = 0.8002 | 1005.04 | 1.912
303.15 K, x1 = 0.8997 | 1017.76 | 2.061
303.15 K, x1 = 1 | 1029.25 | 2.229
308.15 K, x1 = 0.1 | 837.02 | 1.371
308.15 K, x1 = 0.2 | 873.57 | 1.316
308.15 K, x1 = 0.2999 | 903.69 | 1.328
308.15 K, x1 = 0.3998 | 928.98 | 1.376
308.15 K, x1 = 0.4999 | 950.59 | 1.444
308.15 K, x1 = 0.6001 | 969.27 | 1.524
308.15 K, x1 = 0.7001 | 985.54 | 1.619
308.15 K, x1 = 0.8002 | 999.9 | 1.731
308.15 K, x1 = 0.8997 | 1012.6 | 1.861
308.15 K, x1 = 1 | 1024.08 | 2.008
313.15 K, x1 = 0.1 | 832.6 | 1.248
313.15 K, x1 = 0.2 | 868.94 | 1.209
313.15 K, x1 = 0.2999 | 898.89 | 1.222
313.15 K, x1 = 0.3998 | 924.07 | 1.265
313.15 K, x1 = 0.4999 | 945.59 | 1.325
313.15 K, x1 = 0.6001 | 964.21 | 1.398
313.15 K, x1 = 0.7001 | 980.44 | 1.484
313.15 K, x1 = 0.8002 | 994.77 | 1.586
313.15 K, x1 = 0.8997 | 1007.44 | 1.7
313.15 K, x1 = 1 | 1018.9 | 1.821
318.15 K, x1 = 0.1 | 828.14 | 1.128
318.15 K, x1 = 0.2 | 864.27 | 1.096
318.15 K, x1 = 0.2999 | 894.07 | 1.11
318.15 K, x1 = 0.3998 | 919.14 | 1.15
318.15 K, x1 = 0.4999 | 940.58 | 1.206
318.15 K, x1 = 0.6001 | 959.14 | 1.274
318.15 K, x1 = 0.7001 | 975.33 | 1.352
318.15 K, x1 = 0.8002 | 989.62 | 1.443
318.15 K, x1 = 0.8997 | 1002.28 | 1.545
318.15 K, x1 = 1 | 1013.72 | 1.66
323.15 K, x1 = 0.1 | 823.65 | 1.029
323.15 K, x1 = 0.2 | 859.57 | 1.006
323.15 K, x1 = 0.2999 | 889.22 | 1.025
323.15 K, x1 = 0.3998 | 914.18 | 1.065
323.15 K, x1 = 0.4999 | 935.55 | 1.118
323.15 K, x1 = 0.6001 | 954.05 | 1.18
323.15 K, x1 = 0.7001 | 970.21 | 1.251
323.15 K, x1 = 0.8002 | 984.48 | 1.334
323.15 K, x1 = 0.8997 | 997.12 | 1.425
323.15 K, x1 = 1 | 1008.55 | 1.523
